Laboratory results reported in patent US12195505B2, “Treatment of cystic fibrosis by delivery of nebulized mRNA encoding CFTR” (Translate Bio, Inc., priority 2018, dated 2025).

Test system: human bronchial epithelial cells
Assay: Ussing chamber assay, Forskolin-induced chloride channel activity
Type: cell-based
Conditions: added after current measurement, all groups
Experimental: The changes in chloride transport across the bronchial epithelial cell membrane was measured by short circuit current output in a Ussing epithelial voltage clamp apparatus (i.e., a Ussing chamber). Specifically, using an established Ussing Chamber procedure (Charles River Laboratories), hCFTR mRNA encapsulated in a liposome comprising ICE, DOPE, and a PEG-modified lipid was incubated for 2 or 4 hours on the apical (mucosal) or basolateral (serosal) sides, or both sides, of human bronchial epithelial cells. A buffer blank also was included as a control, for example, to assess chloride transport by endogenous CFTR in the cells. Next, Forskolin-induced chloride channel activity was measured using the Ussing chamber assay.

Question: How did the “Effect on chloride activity in Ussing chamber” value turn out when `O=C(O)c1ccc(/C=C2\SC(=S)N(c3cccc(C(F)(F)F)c3)C2=O)cc1` [CFTR inhibitor-172] was run?
Answer: inhibited
